Values of other authors in patent US20250241957A1, “INTRA-ERYTHROCYTE DEXAMETHASONE FOR TREATMENT OF ATAXIA-[…]” (priority 2024, published 2025).

Tested on: participants with A-T
Details: betamethasone used for two years

For `C[C@H]1C[C@H]2[C@@H]3CCC4=CC(=O)C=C[C@]4(C)[C@@]3(F)[C@@H](O)C[C@]2(C)[C@@]1(O)C(=O)CO` [betamethasone], the Adrenal suppression is given as “documented in all participants”.
